The values that follow come from publication PMC11520585 (BMC Neuroscience, 2024).

The structures appear in SMILES notation.

The subject of experiment [1] is organotypic hippocampal slice cultures. Nature of the experiment: organotypic hippocampal slice culture neuroprotection assay. To be noted: ZA-II-05 100 µM, NMDA 10 µM insult, P < 0.05. In kind it is cell-based, rat.
Experiment [2] concerns C. elegans. Conditions: in vivo.
In experiment [3] the test system is C. elegans. It is filed as in vivo. Conditions: ZA-II-05 1 mg/ml treated groups, 24 h.
Experiment [4] concerns C. elegans. It is filed as in vivo. Conditions: ZA-II-05 1 mg/ml treated groups, 24 h. This is another data set of the same source.
Experiment [5] has as its system C. elegans. Conditions: in vivo. This is another data set of the same source.
The target of a further experiment is Opioid receptors (KOR). Conditions: read-out: Ki, Opioid receptors (KOR); competitive radioligand binding; cited from earlier work.
For the next experiment, the target named is µ-opioid receptors (MOR). To be noted: read-out: Ki, µ-opioid receptors (MOR); competitive radioligand binding; cited from earlier work.
The target in another experiment is Sigma2 receptor. To be noted: read-out: Ki, Sigma2 receptor; competitive radioligand binding; cited from earlier work.
Experiment [6] addresses GluN1/GluN2A subtype receptors. Conditions: read-out: mean IC50, GluN1/GluN2A; cited from earlier work.
In experiment [7] the target is GluN1/GluN2B subtype receptors. To be noted: read-out: mean IC50, GluN1/GluN2B; cited from earlier work.
In experiment [8] the test system is maximal electroshock seizures. To be noted: 100 and 300 mg/kg (i.p.); cited from earlier work.
For experiment [9], the system named is vanadium-induced neurotoxicity. Conditions: vanadium-exposed mice; cited from earlier work.

`Fc1ccc(C2(NCCCOC3CCCCO3)CC3CCC2C3)cc1` (stereo not drawn) [ZA-II-05, 2-[4-Fluorophenyl]-N-(3-[tetrahydro-2H-pyran-2-yloxy]propyl) bicyclo [2.2.1] heptan-2-amine]: in experiment [1], the “neuroprotection (propidium iodide fluorescence intensity vs NMDA group)” value is “significant neuroprotective effect”. Besides, the “growth pattern (body length, body wall)” value in the experiment with C. elegans [2] is on record as “reversed this effect”. For the same molecule, the “nuclei in ventral nerve cord (DAPI)” value in the experiment with C. elegans [3] is listed as “preserved the nucleus”. In the experiment on C. elegans [4], the “mitochondrial density (fluorescence intensity)” value was “dense presence of mitochondria”. The “mitochondrial superoxide (MitoSOX fluorescence), effect on vanadium-induced ROS” value with C. elegans [5] is on record as “alleviated”. Besides, the Ki is 361 nM at Opioid receptors (KOR), 3040 nM at µ-opioid receptors (MOR) and 5.5 nM at Sigma2 receptor. Besides, the IC50 in [6] was 518 nM; in experiment [7], 430 nM. Moreover, in experiment [8], the “activity in maximal electroshock seizure (MES) assessment” value is recorded as “activity”. Moreover, the “protection against neuronal damage” value in experiment [9] is “considerable protection against neuronal damage”.

For orientation: Ki means the equilibrium dissociation constant of an inhibitor or competing ligand from its target.
